Laboratory results: article PMC10051477, “5,8-Dimethyl-9H-carbazole Derivatives Blocking hTopo I Activity and Actin Dynamics” (Pharmaceuticals, 2023)

What was measured:
MDA-MB-231 cells [1] = experiment: TUNEL assay (apoptosis); assay type: cell-based, human; conditions: MDA-MB-231, 24 h, concentration equal to IC50 values
Procedure: Having individuated two intracellular targets, we wondered whether the lead compounds could induce apoptosis in MDA-MB-231 cells. Thus, we performed a TUNEL assay. […] Indeed, the exposure to both compounds produced a green nuclear fluorescence, already at 24 h, in MDA-MB-231 cells (Figure 6, 3 and 4, panels B, CF^TM488A) as a consequence of the damaged DNA. […] The overlay channel (Figure 6, panels C) is also shown.
TUNEL assay was employed to assess the cells apoptosis, following the manufacturer’s protocols (CF™488A TUNEL Assay Apoptosis Detection Kit, Biotium, Hayward, CA, USA) with few revisions. Briefly, the cells were plated and then additional processed as previously described. DAPI (0.2 μg/mL, Sigma Aldrich, Milan, Italy) was used for nuclei staining. A fluorescence microscope (Leica DM 6000) was used for fluorescence detection (20× magnification). LAS-X software allowed acquiring and processing all the fluorescence images, which are representative of three separate experiments.

hTopo II = target: T1, hTopo II (Homo sapiens, UniProt P11388); experiment: hTopo II decatenation assay; assay type: biochemical; conditions: compound at 10 μM, kDNA, agarose gel
T1 construct: purchased TopoGEN
T1 sequence (P11388 whole entry): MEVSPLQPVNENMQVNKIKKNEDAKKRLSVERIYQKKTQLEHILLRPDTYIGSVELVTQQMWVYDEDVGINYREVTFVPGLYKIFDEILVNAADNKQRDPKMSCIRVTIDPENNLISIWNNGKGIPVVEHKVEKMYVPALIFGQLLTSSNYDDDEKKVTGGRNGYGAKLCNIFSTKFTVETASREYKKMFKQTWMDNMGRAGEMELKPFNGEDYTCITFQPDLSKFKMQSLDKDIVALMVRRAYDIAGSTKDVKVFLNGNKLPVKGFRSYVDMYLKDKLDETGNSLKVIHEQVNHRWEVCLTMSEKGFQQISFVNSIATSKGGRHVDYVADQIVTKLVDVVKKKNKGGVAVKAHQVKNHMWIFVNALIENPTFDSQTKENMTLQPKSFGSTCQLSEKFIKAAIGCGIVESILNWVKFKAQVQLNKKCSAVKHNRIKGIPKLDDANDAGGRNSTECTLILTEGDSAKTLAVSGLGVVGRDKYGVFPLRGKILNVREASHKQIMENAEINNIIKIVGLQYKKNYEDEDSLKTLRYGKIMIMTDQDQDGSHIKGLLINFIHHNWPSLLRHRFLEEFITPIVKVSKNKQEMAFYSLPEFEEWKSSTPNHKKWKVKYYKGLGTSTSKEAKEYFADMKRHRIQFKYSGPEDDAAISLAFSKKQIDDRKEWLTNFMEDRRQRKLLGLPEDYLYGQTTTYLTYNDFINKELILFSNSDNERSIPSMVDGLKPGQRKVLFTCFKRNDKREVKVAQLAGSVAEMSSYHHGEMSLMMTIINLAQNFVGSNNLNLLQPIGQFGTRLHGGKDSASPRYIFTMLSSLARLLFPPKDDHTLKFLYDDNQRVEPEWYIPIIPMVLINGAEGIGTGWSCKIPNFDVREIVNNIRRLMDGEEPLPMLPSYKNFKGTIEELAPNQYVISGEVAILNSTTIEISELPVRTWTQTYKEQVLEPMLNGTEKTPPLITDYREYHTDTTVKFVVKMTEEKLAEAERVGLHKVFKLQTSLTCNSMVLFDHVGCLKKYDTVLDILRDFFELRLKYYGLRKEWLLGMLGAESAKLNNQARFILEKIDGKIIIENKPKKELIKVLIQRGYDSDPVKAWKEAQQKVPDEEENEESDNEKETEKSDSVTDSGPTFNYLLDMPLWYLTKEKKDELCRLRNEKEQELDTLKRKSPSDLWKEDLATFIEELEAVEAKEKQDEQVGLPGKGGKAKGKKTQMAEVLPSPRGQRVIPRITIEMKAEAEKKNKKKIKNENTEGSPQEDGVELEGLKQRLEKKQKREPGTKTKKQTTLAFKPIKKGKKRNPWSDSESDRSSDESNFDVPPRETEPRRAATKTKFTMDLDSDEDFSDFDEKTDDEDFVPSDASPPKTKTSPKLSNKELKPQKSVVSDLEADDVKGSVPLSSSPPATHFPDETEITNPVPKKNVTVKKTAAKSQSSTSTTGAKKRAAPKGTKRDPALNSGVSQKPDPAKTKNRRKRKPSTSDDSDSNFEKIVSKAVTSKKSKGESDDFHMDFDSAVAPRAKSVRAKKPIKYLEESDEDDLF
Procedure: Next, we screened all the compounds for their activity against the hTopo II but, in this case, none of the tested compounds have been able to block the decatenation activity at the concentration of […] (Figure 3b, lanes 4 and 5). […] Indeed, two bands related to the DNA decatenation products are present at the bottom of the agarose gel, which denote the enzyme full activity, both in the control (only vehicle, Figure 3b, lane 3) and the tested compound reactions (Figure 3b, lanes 4–7).
Similarly, hTopo II decatenation assays were carried out, as indicated in the manufacturer’s procedures (TopoGEN, Port Orange, FL, USA) with some revisions.
hTopo II decatenation assays were performed in a final volume of 20 μL: 0.3 μg of kinetoplast DNA (kDNA) was added to a solution containing 1× assay buffer (50 mM Tris-HCl, pH of 8, 150 mM NaCl, 10 mM MgCl2, 0.5 mM Dithiothreitol (DTT), 30 μg/mL bovine serum albumin (BSA), 1 mM ATP) and the tested compounds. The mix was incubated for 15 min at 37 °C. Then, the reaction was started by adding 3 U of hTopo II and incubating at 37 °C for 1 h. Then, 5× stop buffer was added and the samples were treated as described in the previous paragraph. The aqueous phase was loaded on a 1% agarose gel containing 1× TAE buffer with EB (0.5 μg/mL) and visualized using an UV transilluminator.

MDA-MB-231 cells [2] = experiment: MTT assay, MDA-MB-231 cell viability; assay type: cell-based; conditions: Homo sapiens, 72 h, mean ± standard deviation
Procedure: The inhibition of cancer cell growth exerted by the five considered compounds (1–5) has been evaluated in vitro against two models of breast cancer, namely the estrogen receptor positive (ER+) MCF-7 and the triple negative MDA-MB-231 human breast cancer cells (lacking ER, PR, and HER-2/Neu amplification), together with the normal counterpart, namely the non-malignant breast epithelial cells MCF-10A. […] Moreover, no effects were recorded against the MCF-7 cells, at least until the concentration of 100 μM. […] Thus, the two lead compounds were chosen for subsequent studies aiming at individuating the molecular mechanisms underlying the observed anticancer activity.
MTT assays (Sigma Aldrich (St.Louis, MO, USA)) were employed to evaluate the in vitro anticancer activities of all the studied compounds, as previously described. The compounds were tested at different concentrations (0.1-1-10-25-50-100 μM) for 72 h. The IC50 values were calculated from the percent (%) of control using GraphPad Prism 9 (GraphPad Software, La Jolla, CA, USA).

hTopo I = target: T2, hTopo I (Homo sapiens, UniProt P11387); experiment: hTopo I relaxation assay; assay type: biochemical; conditions: compound at 1 μM, pHOT1 plasmid, agarose gel
T2 construct: purchased TopoGEN
T2 sequence (P11387 1-765): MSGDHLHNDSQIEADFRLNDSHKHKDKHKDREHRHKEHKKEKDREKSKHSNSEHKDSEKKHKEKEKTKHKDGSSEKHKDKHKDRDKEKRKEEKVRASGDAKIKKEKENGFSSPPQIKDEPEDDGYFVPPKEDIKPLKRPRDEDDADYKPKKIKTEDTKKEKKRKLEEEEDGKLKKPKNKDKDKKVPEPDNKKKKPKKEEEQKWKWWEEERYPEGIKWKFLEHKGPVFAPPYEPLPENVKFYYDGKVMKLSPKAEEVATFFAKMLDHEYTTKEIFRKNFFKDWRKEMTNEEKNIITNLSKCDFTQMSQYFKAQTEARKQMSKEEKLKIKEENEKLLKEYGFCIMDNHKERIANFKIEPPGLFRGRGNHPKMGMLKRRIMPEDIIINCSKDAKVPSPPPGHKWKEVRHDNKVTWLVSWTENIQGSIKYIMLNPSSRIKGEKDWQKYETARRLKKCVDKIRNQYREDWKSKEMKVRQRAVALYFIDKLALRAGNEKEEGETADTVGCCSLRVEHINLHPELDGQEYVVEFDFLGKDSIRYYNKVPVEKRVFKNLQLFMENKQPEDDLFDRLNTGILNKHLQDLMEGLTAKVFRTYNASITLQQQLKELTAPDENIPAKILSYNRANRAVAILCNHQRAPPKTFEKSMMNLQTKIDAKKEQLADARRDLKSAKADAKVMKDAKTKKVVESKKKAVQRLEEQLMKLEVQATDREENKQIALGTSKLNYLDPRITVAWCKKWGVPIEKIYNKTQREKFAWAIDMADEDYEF
Procedure: Indeed, as shown in Figure 3a (lanes 3 and 4), a clear band of the uncut plasmid DNA at the bottom of the gel is present. The uncut plasmid pHOT1, used as marker, is present in Figure 3a, lane 1. On the contrary, in the control reaction (only vehicle, Figure 3a, lane 2), it is possible to observe the presence of multiple bands corresponding to the relaxed plasmid DNA, used as substrate.
hTopo I relaxation assays were performed as indicated in the manufacturer’s protocol (TopoGEN, Port Orange, FL, USA) with some revisions. hTopo I relaxation assays were performed in a final volume of 20 μL: 0.25 μg of supercoiled pHOT1 in TE buffer [TE: 10 mM Tris-HCl (pH 7.5), 1 mM EDTA] was added to a solution containing water, 1× assay buffer (10 mM Tris-HCl (pH 7.9), 1 mM EDTA, 0.5 mM NaCl, 0.1% bovine serum albumin, 0.1 mM spermidine and 5% glycerol) and the tested compounds. The mix was incubated for 15 min at 37 °C. Then, the reaction was initiated by addition of recombinant hTopo I (2 U), incubated at 37 °C for 1 h and terminated by the addition of 5× stop buffer (5% sarkosyl, 25% glycerol, 0.125% bromophenol blue). The aqueous phase was loaded onto a 1% agarose gel containing 1× TAE buffer (diluted from50× buffer containing 242 g Tris base, 57.1 mL glacial acetic acid and 100 mL of 0.5 M EDTA) without ethidium bromide (EB). […]

SMILES	Apoptosis induction (TUNEL, green nuclear fluorescence) (MDA-MB-231 cells [1])	Inhibition of hTopo II decatenation activity (hTopo II)	IC50 (MDA-MB-231 cells [2])	Inhibition of hTopo I supercoiling relaxing activity (hTopo I)
Cc1ccc(C)c2c1c1cc(B(O)O)ccc1n2C(=O)OC(C)(C)C [Compound 3]	able to trigger apoptosis	no inhibitory activity	1440 ± 970 nM	totally inhibited
Cc1ccc(C)c2c1c1cc(O)ccc1n2C(=O)OC(C)(C)C [Compound 4]	able to trigger apoptosis	no inhibitory activity	730 ± 740 nM	totally inhibited
